Results published in paper PMC6739136 (Neuropeptides, 2019).

Tested on: urinary bladder pressure, anesthetized minipigs
Test: Cystometry
Assay type: in vivo, minipig (Gottingen, Sinclair)
Details: GR 159897 1 mg/kg IV, 15 min prior to LMN-NKA, N=2, anesthetized minipigs, DT-063

## COC1(C[S@@+]([O-])c2ccccc2)CCN(CCc2c[nH]c3ccc(F)cc23)CC1 [GR 159897, 5-Fluoro-3-[2-[4-methoxy-4-[[(R)-phenylsulphinyl]methyl]-1-piperidinyl]ethyl]-1H-indole]
  effect on increase in bladder pressure induced by 100 μg/kg SC of LMN-NKA: blocked
